The test system of series [1] is MDA-MB-231 (breast adenocarcinoma). Description: Antiproliferative activity, sulforhodamine B assay. In kind it is cell-based, human. The note with it: Homo sapiens, MDA-MB-231; SRB, 72 h incubation; read-out: IC50 ± SD, MDA-MB-231. The text has this: (§1) Ten different human cancer cell lines (including drug-resistant sublines) and one non-tumorigenic murine fibroblasts cell line were used to determine antiproliferative activity of the tested compounds. The MDA-MB-231 (breast adenocarcinoma), UM-UC-3 (urinary bladder transitional cell carcinoma), LoVo (colorectal adenocarcinoma), LoVo^Dx (colorectal adenocarcinoma, doxorubicin-resistant) and Balb/3T3 (non-tumorigenic murine fibroblasts) were purchased from the American Type Culture Collection (ATCC; Rockville, USA). The MCF-7 (breast adenocarcinoma) and A549 (lung carcinoma) were purchased from European Collection of Authenticated Cell Cultures (ECACC; Porton Down, UK). The UM-UC-3^CDDP, UM-UC-3^GEM, UM-UC-3^VBL, and UM-UC-3^CDDP/GEM cell lines were established at Hirszfeld Institute of Immunology and Experimental Therapy of the Polish Academy of Sciences (HIIET, PAS, Wroclaw, Poland) by the continuous exposure to the increasing concentrations of corresponding cytostatics.
(§2) The Balb/3T3 and UM-UC-3 were cultured in Dulbecco’s Modified Eagle Medium (DMEM; Life Technologies, UK) supplemented with 10% (v/v) fetal bovine serum (FBS; GE Healthcare HyClone, Logan, USA) and 2 mM L-glutamine (Sigma-Aldrich, Poznań, Poland). The UM-UC-3^CDDP, UM-UC-3^GEM, UM-UC-^3VBL, and UM-UC-3^CDDP/GEM culture media were additionally supplemented with appropriate cytostatics: 2.5 µg/mL cisplatin (Accord, Warsaw, Poland) for UM-UC-3^CDDP, 500 nM gemcitabine (Sigma-Aldrich, Poznań, Poland) for UM-UC-3^GEM, 5 nM vinblastine (Sigma-Aldrich, Poznań, Poland) for UM-UC-3VBL, 2.5 µg/mL cisplatin and 500 nM gemcitabine for UM-UC-3^CDDP/GEM. The LoVo cell line was cultured in F-12K Nutrient Mixture (F-12K; Corning, Corning, USA), supplemented with 10% (v/v) FBS. LoVo^Dx culture medium was additionally supplemented with doxorubicin 100 ng/mL (Accord, Warsaw, Poland). The MCF-7 cell line was cultured in Eagle’s medium (HIIET, PAS, Wroclaw, Poland), supplemented with 10% (v/v) FBS (Sigma-Aldrich, Poznań, Poland), 2 mM L-glutamine, MEM non-essential amino acid solution 1% (v/v) (Sigma-Aldrich, Poznań, Poland), insulin 8 µg/mL (Sigma-Aldrich, Poznań, Poland). The MDA-MB-231 cell line was cultured in RPMI 1640 (HIIET, PAS, Wroclaw, Poland), supplemented with 10% (v/v) FBS (Sigma-Aldrich, Poznań, Poland) and 2 mM L-glutamine. The A 549 cell line was cultured in OptiMEM (HIIET, PAS, Wroclaw, Poland), supplemented with 5% (v/v) FBS (GE Healthcare HyClone, Logan, USA) and 2 mM L-glutamine. All culture media were supplemented with antibiotics—100 μg/mL streptomycin (Polfa Tarchomin, Warsaw, Poland) and 100 U/mL penicillin (Sigma-Aldrich, Poznań, Poland).
(§3) All cell lines were cultured in a humidified atmosphere at 37 °C with 5% (v/v) CO2 and passaged twice a week using EDTA-Trypsin solution (pH 8; HIIET, Wroclaw, Poland) as a detachment agent.
(§4) All compounds, for antiproliferative activity assessment, were stored at […] as 50 mM solutions in dimethyl sulfoxide (DMSO; Avantor Performance Materials, Gliwice, Poland).
(§5) The cells were seeded on 384-well plates (Greiner Bio One, Kremsmünster, Austria) at 1 × 10^3 cells/well density for A 549, UM-UC-3, UM-UC-3^CDDP, UM-UC-3^GEM, UM-UC-3^CVBL and UM-UC-3^CDDP/GEM cell lines. Other cell lines were seeded at 2 × 10^3 cells/well. After overnight incubation, compounds were applied at eight concentrations (ranging from 100 µM to 0.03 µM). After 72 h incubation, the sulforhodamine B (SRB) assay based on Skehan et al. was carried out with slight modifications. In brief, 50 µL of the medium was replaced with 30 µL/well of 25% (w/v) trichloroacetic acid (Avantor Performance Materials, Gliwice, Poland). After 1 h incubation at room temperature, plates were washed three times with tap water, and 20 µL of 0.1% (w/v) solution of sulforhodamine B (Sigma-Aldrich, Poznan, Poland) in 1% (v/v) acetic acid (Avantor Performance Materials, Gliwice, Poland) was added to each well. […]

Series [2] deals with MCF-7 (breast adenocarcinoma). Put plainly: Antiproliferative activity, sulforhodamine B assay. In kind it is cell-based, human. Conditions: Homo sapiens, MCF7; SRB, 72 h incubation; read-out: IC50 ± SD, MCF-7.
Source text: as §1, §2, §3, §4, §5
(In general: The SRB assay estimates cell density from bound dye.)

In a further series the test system is A549 (lung carcinoma). Put plainly: Antiproliferative activity, sulforhodamine B assay. The note with it: Homo sapiens, A549; SRB, 72 h incubation; read-out: IC50 ± SD, A-549. In kind it is cell-based, human.
Source text: as §1, §2, §3, §4, §5

Series [3] deals with ten diverse human cancer cells lines and murine non-tumorigenic cell line (Balb/3T3). Put plainly: Antiproliferative screen, whole cell line panel (statements in words). In kind it is cell-based. Conditions: SRB, across cell lines.
Source text: as §1, §2, §3, §4, §5

The nature of series [4]: Potentiometric titration and spectroscopy, stability constants of Cu(II)-complexes. The class given is physicochemical. The note with it: for Cu(II) complexing ability (in words): 10a versus 9a below pH 5, 9a versus Gly(Z)Phe, nL:nCu(II) = 1:1. As for the experimental part:
(§6) The pH-metric measurements were performed on Metrohm 905 Titrando system equipped with combined Biotrop® electrode. The titrant was 0.1 M KOH (Merck, Germany) freed of CO2 by bubbling Ar gas for 3 h. The electrode calibration was performed before each titration. The volume of all the samples was 1.5 mL and the measurements were carried out at a range of pH of 2.5–11.0 in thermostated vessels at 298 K in an inert atmosphere of Ar gas. The ligands 9a and 10a were diluted in hydrochloric acid (pH = 2.5), prepared from 37% HCl (Sigma-Aldrich, Poland). Their concentration was set up at a range of 1.0–2.0 × 10^−3 M and the ionic strength of 0.1 M was achieved by the addition of KCl (Sigma-Aldrich, Poland). The ligand-metal ion systems were prepared by addition of CuCl2 (Sigma-Aldrich, Poland). stock solutions to reach final ligand to metal ratio (nL: nCu^2+) being 2:1 or 1:1.
(§7) The protonation (βi = [HiL]/[H^+]^i[L]), stability constants (βpqr = [MpHqLr]/[M]^p[H]^q[L]^r), and stoichiometry of complexes were calculated using the HYPERQUAD program. The distribution species plots were made by HySS program. The standard deviations were computed for all the constants and indicated the presence of only random errors, which was a good evidence of the presence of each species in the equilibrium.
The UV-Vis absorption measurements were recorded on Varian Carry 50 Bio spectrophotometer. All spectra were collected in a quartz cuvette with 1 cm path length at 298 K. The spectral range was 300–800 nm with resolution 0.1 nm. The molar extinction coefficients (ε [M^−1cm^−1]) were calculated for each spectrum at a wavelength of maximum absorption.
The Circular Dichroism spectra (CD) and Magnetic Circular Dichroism (MCD) were measured on a JASCO J 600 spectropolarimeter in a range of 230–800 nm with 0.1 nm resolution. The optical length of the quartz cuvettes was 10 mm. The molar circular dichroism coefficient (Δε [M^−1cm^−1]) was calculated for each spectrum.
The Electron Paramagnetic Resonance (EPR) spectra were recorded on a Brucker ESP 300E spectrometer at X-band frequency (9.5 GHz) at 77 K obtained by the use of liquid nitrogen. The procedure of sample preparation for spectroscopic measurements was the same as in potentiometric titration. The EPR samples were protected by adding 30% of ethylene glycol (Sigma-Aldrich, Poland). The pH of the samples was determined by adding a small quantity of a concentrated solution of KOH (Merck, Germany) to achieve the desired value and controlled by Mettler Toledo pH-meter equipped with combined electrode InLab®Micro. The simulation of the EPR spectrum was performed by the Hyperfine Spectrum program written by W.R. Hagen.

Series [5] in a line: Potentiometric titration, protonation constants of free ligands. The class given is physicochemical. The note with it: 298 K, ionic strength 0.1 M KCl; for protonation constant logβ, H2L / protonation constant logβ, H3L / protonation constant logβ, HL: ± SD. On the procedure: as §6, §7
The subject of series [6] is LoVo^DX (colorectal adenocarcinoma, doxorubicin-resistant). Description: Antiproliferative activity, sulforhodamine B assay. In kind it is cell-based, human. Conditions: Homo sapiens, LoVo/DX, SRB, 72 h incubation, read-out: IC50 ± SD, LoVo^DX.
Source text: as §1, §2, §3, §4, §5

The subject of series [7] is LoVo (colorectal adenocarcinoma). Put plainly: Antiproliferative activity, sulforhodamine B assay. The class given is cell-based, human. Conditions: Homo sapiens, LoVo; SRB, 72 h incubation; read-out: IC50 ± SD, LoVo.
Source text: as §1, §2, §3, §4, §5

For series [8], the system named is Balb/3T3 (non-tumorigenic murine fibroblasts). Description: Antiproliferative activity, sulforhodamine B assay. In kind it is cell-based. Conditions: Mus musculus, BALB/3T3; SRB, 72 h incubation; non-tumorigenic line; read-out: IC50 ± SD, Balb/3T3.
Source text: as §1, §2, §3, §4, §5

Where [9] appears, read: 298 K, ionic strength 0.1 M KCl.
[10] abbreviates: 298 K, ionic strength 0.1 M KCl, ± SD.

Counter-ions that a name gives are not always drawn. Where only a bound is given, the exact number is not on record here.

Take `COC(=O)/C(=C/Sc1nc2ccccc2s1)NC(=O)CN` [Compound 9d, HCl Gly-ΔCys(S-benzothiazole)-OMe]: the IC50 was 56 ± 7.1 µM in series [1], above 100 µM in series [2] and 33.4 ± 6.4 µM in the series with A549 (lung carcinoma).
Take `COC(=O)/C(=C/Sc1nc[nH]n1)NC(=O)CNC(=O)OC(C)(C)C` [Compound 6a, Boc-Gly-ΔCys(S-triazole)-OMe]: the “antiproliferative activity (in words)” value in [3] is “markedly lower, if any, activity”.
For the compound `COC(=O)/C(=C/Sc1nc[nH]n1)NC(=O)[C@@H](N)Cc1ccccc1` [Compound 10a, HCl Phe-ΔCys(S-triazole)-OMe], the “Cu(II) complexing ability (in words)” value in [4] is “significantly more effective binder of Cu(II)”. In series [4] (setting [9]), the “logK, Cu2L2H” value stood at 14.59; the “logK, CuL” value is 10.61; the “logK, CuL2H” value was found to be 8.45; the “logK, CuLH2” value came to 8.83. Further, in [4] (setting [10]), the “stability constant logβ, Cu2L2H” value came to 37.54 ± 0.06; the “stability constant logβ, Cu2L2H-1” value is 22.95 ± 0.06; the “stability constant logβ, CuL” value turned out to be 15.00 ± 0.01; the “stability constant logβ, CuL2” value is 20.37 ± 0.05. Besides, in [4] (setting [10]), the “stability constant logβ, CuL2H” value is 28.82 ± 0.11; the “stability constant logβ, CuLH2” value worked out at 23.83 ± 0.03; the “stability constant logβ, CuLH-1” value was found to be 4.39 ± 0.03. In series [5], the “protonation constant logK, H3L” value worked out at 6.85; the “protonation constant logK, HL” value came out at 10.42; the “protonation constant logβ, H2L” value was 18.53 ± 0.02; the “protonation constant logβ, H3L” value is reported as 25.38 ± 0.02. The “protonation constant logβ, HL” value in series [5] is listed as 10.42 ± 0.01.
Consider `COC(=O)/C(=C/Sc1nc2c(N)ncnc2[nH]1)NC(=O)CNC(=O)OC(C)(C)C` [Compound 6e, Boc-Gly-ΔCys(S-adenine)-OMe], for which the “antiproliferative activity (in words)” value in series [3] was “markedly lower, if any, activity”.
In the case of `COC(=O)/C(=C/Sc1nc2c(N)ncnc2[nH]1)NC(=O)[C@H](Cc1ccccc1)NC(=O)OC(C)(C)C` [Compound 7e, Boc-Phe-ΔCys(S-adenine)-OMe], the IC50 in series [1] was 74.5 ± 7.7 µM; in [6] it was above 100 µM; in [2] it was 101 ± 11.3 µM; in the series with A549 (lung carcinoma) it was above 100 µM; in series [7] it was 81.7 ± 12.4 µM; in series [8] it was above 100 µM. For the same compound, in [3], the “antiproliferative activity (in words)” value is recorded as “markedly lower, if any, activity”.
As to `COC(=O)/C(=C/Sc1nc[nH]n1)NC(=O)CN` [Compound 9a, HCl Gly-ΔCys(S-triazole)-OMe], in [4], the “Cu(II) complexing ability (in words)” value is reported as “significantly more effective in Cu(II) coordination”. Also, in series [4] (setting [9]), the “logK, Cu2L2H” value was determined as 14.45; the “logK, CuL” value is 10.42; the “logK, CuL2” value was 11.35; the “logK, CuL2H” value is 8.73. In series [4] (setting [9]), the “logK, CuL2H2” value came to 7.67 and the “logK, CuLH2” value is reported as 9.34. Besides, in [4] (setting [10]), the “stability constant logβ, Cu2L2H” value was found to be 36.61 ± 0.03; the “stability constant logβ, Cu2L2H-1” value is 22.16 ± 0.06; the “stability constant logβ, CuL” value was 14.18 ± 0.01; the “stability constant logβ, CuL2” value was found to be 20.06 ± 0.04. In addition, in series [4] (setting [10]), the “stability constant logβ, CuL2H” value is given as 28.79 ± 0.04; the “stability constant logβ, CuL2H2” value is listed as 36.46 ± 0.04; the “stability constant logβ, CuL2H-1” value was 8.71 ± 0.07; the “stability constant logβ, CuLH2” value stood at 23.52 ± 0.03. In series [4] (setting [10]), the “stability constant logβ, CuLH-1” value worked out at 3.76 ± 0.04. Besides, the “corrected stability constant (logβ = logβCuLH2 − logβH2L)” value in series [4] (CuH2L complex, equimolar conditions) turned out to be 5.47. The “logβ* = logβCuL − logKHL” value in [4] (CuL species, independent of logKtriazole) is 4.09. In series [5], the “protonation constant logK, H3L” value was 7.26; the “protonation constant logK, HL” value is reported as 10.09; the “protonation constant logβ, H2L” value was found to be 18.05 ± 0.01; the “protonation constant logβ, H3L” value was 25.31 ± 0.01. In addition, the “protonation constant logβ, HL” value in series [5] is 10.09 ± 0.01.

The values above are taken from article PMC7927096, “Dipeptides of S-Substituted Dehydrocysteine as Artzyme Building Blocks: Synthesis, Complexing Abilities and Antiproliferative Properties” (International Journal of Molecular Sciences, 2021).
